# According to patent US20230382889A1 (Volastra Therapeutics, Inc., priority 2022, published 2023):
# Biological target: hKIF18A (1-374) (Homo sapiens (Human), UniProt Q8NI77)
# Experiment: Inhibition of KIF18A microtubule-dependent ATPase activity (ADP-Glo)
# Type: biochemical
# Details: 4 nM hKIF18A (1-374)
# Procedure, shortened: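 Reaction was started with pre-formed microtubules and ATP (0.2 mg/mL and 2.0 mM in the added mix) and run 60 min at 28 °C. ADP was read by ADP-Glo luminescence, and IC50 came from a four-parameter fit of % inhibition.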
# Sequence of hKIF18A (1-374) (Q8NI77 1-374): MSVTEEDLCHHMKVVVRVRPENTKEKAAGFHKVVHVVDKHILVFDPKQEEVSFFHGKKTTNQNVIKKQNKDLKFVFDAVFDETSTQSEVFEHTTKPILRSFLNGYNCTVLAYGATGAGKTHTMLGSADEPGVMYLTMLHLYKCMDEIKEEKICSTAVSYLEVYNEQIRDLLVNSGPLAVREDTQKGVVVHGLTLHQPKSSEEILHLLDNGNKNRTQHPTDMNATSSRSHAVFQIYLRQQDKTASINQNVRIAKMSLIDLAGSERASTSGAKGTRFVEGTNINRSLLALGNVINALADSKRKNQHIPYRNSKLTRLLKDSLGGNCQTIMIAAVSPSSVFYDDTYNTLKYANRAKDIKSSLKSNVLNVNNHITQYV
row,Compound,IC50 [nM]
1,"Cc1ncc(-c2cn(-c3ccc(NS(=O)(=O)CCO)cc3N3CCC4(CC3)CC4)nn2)nc1C1=CCCC1 [Compound 161, N-(4-(4-(6-(cyclopent-1-en-1-yl)-5-methylpyrazin-2-yl)-1H-1,2,3-triazol-1-yl)-3-(6-azaspiro[2.5]octan-6-yl)phenyl)-2-hydroxyethane-1-sulfonamide]",63
2,"CS(=O)(=O)Nc1ccc(-c2ncc(-c3cccc(N4CC5C(C4)C5(F)F)n3)[nH]2)c(N2CCC3(CC2)CC3)c1 (stereo not shown) [Compound 30, N-(4-(5-(6-(6,6-difluoro-3-azabicyclo[3.1.0]hexan-3-yl)pyridin-2-yl)-1H-imidazol-2-yl)-3-(6-azaspiro[2.5]octan-6-yl)phenyl)methanesulfonamide]",21
3,"CS(=O)(=O)Nc1ccc(-n2cc(-c3cccc(N4CC5CC(C4)O5)n3)nn2)c(N2CCC3(CC2)CC3)c1 [Compound 55, N-(4-(4-(6-(6-oxa-3-azabicyclo[3.1.1]heptan-3-yl)pyridin-2-yl)-1H-1,2,3-triazol-1-yl)-3-(6-azaspiro[2.5]octan-6-yl)phenyl)methanesulfonamide]",29
4,"Cc1cc(-c2cnc(-c3ccc(NS(C)(=O)=O)cc3N3CCC4(CC3)CC4)[nH]2)nc(N2CCC(F)(F)CC2)c1 [Compound 28, N-(4-(5-(6-(4,4-difluoropiperidin-1-yl)-4-methylpyridin-2-yl)-1H-imidazol-2-yl)-3-(6-azaspiro[2.5]octan-6-yl)phenyl)methanesulfonamide]",45
5,"CCS(=O)(=O)Nc1ccc(-n2cc(-c3cncc(N4CCC(F)(F)CC4)n3)nn2)c(N2CCC3(CC2)CC3)c1 [Compound 137, N-(4-(4-(6-(4,4-difluoropiperidin-1-yl)pyrazin-2-yl)-1H-1,2,3-triazol-1-yl)-3-(6-azaspiro[2.5]octan-6-yl)phenyl)ethanesulfonamide]",6.3
6,"N-(4-(4-(2-((3S,4R)-3,4-difluoropyrrolidin-1-yl)-6-methylpyrimidin-4-yl)-1H-1,2,3-triazol-1-yl)-3-(6-azaspiro[2.5]octan-6-yl)phenyl)-2-hydroxyethane-1-sulfonamide [Compound 107]",16
7,"CS(=O)(=O)Nc1ccc(-n2cc(-c3cccc(N4CCC(F)(F)CC4)n3)nn2)c(N2CC3CC3C2)c1 (stereo not shown) [Compound 165, N-(3-(3-azabicyclo[3.1.0]hexan-3-yl)-4-(4-(6-(4,4-difluoropiperidin-1-yl)pyridin-2-yl)-1H-1,2,3-triazol-1-yl)phenyl)methanesulfonamide]",283
8,"O=S(=O)(CCO)Nc1ccc(-n2cc(-c3ccn(C4CCC(F)(F)CC4)n3)nn2)c(N2CCCCC2)c1 [Compound 76, N-(4-(4-(1-(4,4-difluorocyclohexyl)-1H-pyrazol-3-yl)-1H-1,2,3-triazol-1-yl)-3-(piperidin-1-yl)phenyl)-2-hydroxyethane-1-sulfonamide]",29
9,"Cc1cc(-c2cn(-c3ccc(NS(=O)(=O)CCO)cc3N3CCC4(CC3)CC4)nn2)nc(N2CCC(F)(F)CC2)c1 [Compound 48, N-(4-(4-(6-(4,4-difluoropiperidin-1-yl)-4-methylpyridin-2-yl)-1H-1,2,3-triazol-1-yl)-3-(6-azaspiro[2.5]octan-6-yl)phenyl)-2-hydroxyethane-1-sulfonamide]",17
10,"CS(=O)(=O)Nc1ccc(-n2cc(-c3cccc(N4CCC(F)(F)CC4)n3)nn2)c(N2CCC(C(F)(F)F)CC2)c1 [Compound 20, N-(4-(4-(6-(4,4-difluoropiperidin-1-yl)pyridin-2-yl)-1H-1,2,3-triazol-1-yl)-3-(4-(trifluoromethyl)piperidin-1-yl)phenyl)methanesulfonamide]",23
11,"O=S(=O)(CCO)Nc1ccc(-n2cc(-c3ccc(C(O)C4CCCC4)o3)nn2)c(N2CCC3(CC2)CC3)c1 (single isomer, unassigned) [Compound 51b]",3.1
12,"O=S(=O)(CCO)Nc1ccc(-c2cn(-c3ccc(F)c(S(=O)(=O)N4CC(F)(F)C4)c3)nn2)c(N2CCC3(CC2)CC3)c1 [Compound 129, N-(4-(1-(3-((3,3-difluoroazetidin-1-yl)sulfonyl)-4-fluorophenyl)-1H-1,2,3-triazol-4-yl)-3-(6-azaspiro[2.5]octan-6-yl)phenyl)-2-hydroxyethane-1-sulfonamide]",14
13,"O=S(=O)(CCO)Nc1cc(N2CCC3(CC2)CC3)c(-n2cc(-c3cncc(N4CCC(F)(F)CC4)n3)nn2)cc1F [Compound 144, N-(4-(4-(6-(4,4-difluoropiperidin-1-yl)pyrazin-2-yl)-1H-1,2,3-triazol-1-yl)-2-fluoro-5-(6-azaspiro[2.5]octan-6-yl)phenyl)-2-hydroxyethane-1-sulfonamide]",2.8
14,"O=S(=O)(CCO)Nc1ccc(-n2cc(-c3csc(N4CCCC4)n3)nn2)c(N2CCC3(CC2)CC3)c1 [Compound 81, 2-hydroxy-N-(4-(4-(2-(pyrrolidin-1-yl)thiazol-4-yl)-1H-1,2,3-triazol-1-yl)-3-(6-azaspiro[2.5]octan-6-yl)phenyl)ethane-1-sulfonamide]",140
15,"Cc1cc(-c2cn(-c3ccc(NS(=O)(=O)CCCO)cc3N3CCC4(CC3)CC4)nn2)nc(N2CCC(F)(F)CC2)n1 [Compound 151, N-(4-(4-(2-(4,4-difluoropiperidin-1-yl)-6-methylpyrimidin-4-yl)-1H-1,2,3-triazol-1-yl)-3-(6-azaspiro[2.5]octan-6-yl)phenyl)-3-hydroxypropane-1-sulfonamide]",27
16,"CS(=O)(=O)Nc1ccc(-n2cc(-c3cccc(N4CCOCC4)n3)nn2)c(N2CCC3(CC2)CC3)c1 [Compound 54, N-(4-(4-(6-morpholinopyridin-2-yl)-1H-1,2,3-triazol-1-yl)-3-(6-azaspiro[2.5]octan-6-yl)phenyl)methanesulfonamide]",8.3
17,"Cc1cc(-c2cn(-c3ccc(NS(=O)(=O)C4CC4)cc3N3CCC4(CC3)CC4)nn2)nc(C(O)C2CCCC2)c1 (stereo not shown) [Compound 139, N-(4-(4-(6-(cyclopentyl(hydroxy)methyl)-4-methylpyridin-2-yl)-1H-1,2,3-triazol-1-yl)-3-(6-azaspiro[2.5]octan-6-yl)phenyl)cyclopropanesulfonamide]",40
18,"O=S(=O)(CCO)Nc1ccc(-c2cn(-c3ccc(F)c(S(=O)(=O)N4CC(F)(F)C4)c3)nn2)c(N2CCC3(CC2)CC3)n1 [Compound 111, N-(5-(1-(3-((3,3-difluoroazetidin-1-yl)sulfonyl)-4-fluorophenyl)-1H-1,2,3-triazol-4-yl)-6-(6-azaspiro[2.5]octan-6-yl)pyridin-2-yl)-2-hydroxyethane-1-sulfonamide]",68
19,"O=S(=O)(Nc1ccc(-n2cc(-c3ccc(F)c(N4CCC(F)(F)CC4)n3)nn2)c(N2CCCCC2)c1)C1(CO)CC1 [Compound 157, N-(4-(4-(6-(4,4-difluoropiperidin-1-yl)-5-fluoropyridin-2-yl)-1H-1,2,3-triazol-1-yl)-3-(piperidin-1-yl)phenyl)-1-(hydroxymethyl)cyclopropane-1-sulfonamide]",21
20,"CS(=O)(=O)Nc1ccc(-c2ncc(-c3cccc(NC4CC(F)(F)C4)n3)[nH]2)c(N2CCC3(CC2)CC3)c1 [Compound 32, N-(4-(5-(6-((3,3-difluorocyclobutyl)amino)pyridin-2-yl)-1H-imidazol-2-yl)-3-(6-azaspiro[2.5]octan-6-yl)phenyl)methanesulfonamide]",140
21,Cc1cc(-n2cc(-c3ccc(NS(=O)(=O)CCO)cc3N3CCC4(CC3)CC4)nn2)cc(N2CCC(F)(F)CC2)n1 [Compound 114],58
22,"CC(C)(C)NS(=O)(=O)c1cccc(-c2cn(-c3ccc(NS(=O)(=O)CCO)cc3N3CCC4(CC3)CC4)nn2)c1 [Compound 121, N-(tert-butyl)-3-(1-(4-((2-hydroxyethyl)sulfonamido)-2-(6-azaspiro[2.5]octan-6-yl)phenyl)-1H-1,2,3-triazol-4-yl)benzenesulfonamide]",14
23,"O=C(c1ccc(-c2cn(-c3ccc(NS(=O)(=O)CCO)cc3N3CCC4(CC3)CC4)nn2)o1)C1CCCC1 [Compound 92, N-(4-(4-(5-(cyclopentanecarbonyl)furan-2-yl)-1H-1,2,3-triazol-1-yl)-3-(6-azaspiro[2.5]octan-6-yl)phenyl)-2-hydroxyethane-1-sulfonamide]",9.6
24,"O=S(=O)(CCO)Nc1ccc(-n2cc(-c3ccn(C4CCC(F)(F)CC4)n3)nn2)c(N2CCC3(CC2)CC3)c1 [Compound 84, N-(4-(4-(1-(4,4-difluorocyclohexyl)-1H-pyrazol-3-yl)-1H-1,2,3-triazol-1-yl)-3-(6-azaspiro[2.5]octan-6-yl)phenyl)-2-hydroxyethane-1-sulfonamide]",8.2
25,"CCS(=O)(=O)Nc1ccc(-n2cc(-c3cccc(S(=O)(=O)NC(C)(C)C)c3)nn2)c(N2CCC(C(F)F)CC2)c1 [Compound 118, N-(tert-butyl)-3-(1-(2-(4-(difluoromethyl)piperidin-1-yl)-4-(ethylsulfonamido)phenyl)-1H-1,2,3-triazol-4-yl)benzenesulfonamide]",15
26,"CS(=O)(=O)Nc1ccc(-n2cc(-c3cccc(N4CCC(F)(F)CC4)n3)nn2)c(N2CCC3(CC2)CC3)n1 [Compound 46, N-(5-(4-(6-(4,4-difluoropiperidin-1-yl)pyridin-2-yl)-1H-1,2,3-triazol-1-yl)-6-(6-azaspiro[2.5]octan-6-yl)pyridin-2-yl)methanesulfonamide]",9.1
27,"CS(=O)(=O)Nc1ccc(-n2cc(-c3csc(N4CCC(F)(F)CC4)n3)nn2)c(N2CCC3(CC2)CC3)c1 [Compound 50, N-(4-(4-(2-(4,4-difluoropiperidin-1-yl)thiazol-4-yl)-1H-1,2,3-triazol-1-yl)-3-(6-azaspiro[2.5]octan-6-yl)phenyl)methanesulfonamide]",7.2
28,"O=S(=O)(CCO)Nc1ccc(-n2cc(-c3ccc(C(O)C4CCCC4)o3)nn2)c(N2CCC3(CC2)CC3)c1 (stereo not shown) [Compound 51, N-(4-(4-(5-(cyclopentyl(hydroxy)methyl)furan-2-yl)-1H-1,2,3-triazol-1-yl)-3-(6-azaspiro[2.5]octan-6-yl)phenyl)-2-hydroxyethane-1-sulfonamide]",2.8
